Target: human ALK5 (Homo sapiens (Human), UniProt P36897)
Assay: ADP-GLO Kinases assay, inhibitory activity on ALK5
Assay type: biochemical
Conditions: purified recombinant human ALK5 2.6 nM, TGFβ1 peptide substrate, 25° C, 150 min incubation, ADP-Glo detection; read-out: ALK5 IC50
Experimental: The enzymatic activity of compounds of the present invention was monitored measuring the formation of ADP using the ADP-GLO Kinases assay. Following the incubation of the purified enzyme, a substrate and ATP, the produced ADP was converted into ATP, which in turn was converted into light by Ultra-Glo Luciferase. The luminescent signal positively correlated with ADP amount and kinase activity. […] The assay was performed in 384-well format and was validated using a selection of reference compounds that was tested in 11 point concentration-response curve.

human ALK5, sequence (P36897 80-503 limits assumed): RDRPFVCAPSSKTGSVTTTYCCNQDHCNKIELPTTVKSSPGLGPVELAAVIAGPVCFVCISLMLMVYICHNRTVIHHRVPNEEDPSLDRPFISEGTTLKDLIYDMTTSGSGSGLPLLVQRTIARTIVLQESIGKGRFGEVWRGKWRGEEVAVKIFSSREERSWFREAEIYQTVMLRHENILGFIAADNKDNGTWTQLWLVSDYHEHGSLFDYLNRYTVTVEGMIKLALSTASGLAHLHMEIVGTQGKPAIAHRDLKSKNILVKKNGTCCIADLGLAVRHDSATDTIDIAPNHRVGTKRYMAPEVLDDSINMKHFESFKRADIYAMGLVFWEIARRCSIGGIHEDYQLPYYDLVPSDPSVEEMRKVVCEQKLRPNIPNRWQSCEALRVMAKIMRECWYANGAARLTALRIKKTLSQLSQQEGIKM

Compound	IC50
COC(=O)CC1CN(C)CCN1CCC(=O)Nc1cc(Nc2cc(-c3cc(Cl)ccc3F)nnc2C)ccn1 (stereo not drawn) [Example 101, methyl 2-(1-{2-[(4-{[6-(5-chloro-2-fluorophenyl)-3-methylpyridazin-4-yl]amino}pyridin-2-yl)carbamoyl]ethyl}-4-methylpiperazin-2-yl)acetate]	< 1 nM
Cc1nnc(-c2cc(Cl)ccc2F)cc1Nc1ccnc(NC(=O)CCN2CCS(=O)(=O)CC2)c1 [Example 132, N-(4-{[6-(5-Chloro-2-Fluorophenyl)-3-Methylpyridazin-4-Yl]Amino}Pyridin-2-Yl)-3-(1,1-Dioxo-11,6-Thiomorpholin-4-Yl)Propanamide]	< 1 nM
Cc1nnc(-c2cc(Cl)ccc2F)cc1Nc1ccnc(NC(=O)CCN2CCSCC2)c1 [Example 120, N-(4-{[6-(5-Chloro-2-Fluorophenyl)-3-Methylpyridazin-4-Yl]Amino}Pyridin-2-Yl)-3-(Thiomorpholin-4-Yl)Propanamide]	< 1 nM
CC(=O)NCCN1CCN(CCOc2ccc3c(Nc4cnnc(-c5cc(Cl)ccc5F)c4)ccnc3c2)CC1 [Example 69, N-[2-(4-{2-[(4-{[6-(5-Chloro-2-Fluorophenyl)Pyridazin-4-Yl]Amino}Quinolin-7-Yl)Oxy]Ethyl}Piperazin-1-Yl)Ethyl]Acetamide]	< 1 nM
CN1CCCN(CCOc2ccc3c(Nc4cnnc(-c5cc(Cl)ccc5F)c4)ccnc3c2)C1 [Example 62, N-[6-(5-Chloro-2-Fluorophenyl)Pyridazin-4-Yl]-7-[2-(3-Methyl-1,3-Diazinan-1-Yl)Ethoxy]Quinolin-4-Amine]	< 1 nM
Cc1nnc(-c2cc(Cl)ccc2F)cc1Nc1ccnc(NC(=O)CN2CCOCC2)c1 [Example 117, N-(4-{[6-(5-Chloro-2-Fluorophenyl)-3-Methylpyridazin-4-Yl]Amino}Pyridin-2-Yl)-2-(Morpholin-4-Yl)Acetamide]	< 1 nM
Fc1ccc(Cl)cc1-c1cc(Nc2ccnc3cc(OCCN4CCOCC4)ccc23)cnn1 [Example 3, N-[6-(5-Chloro-2-Fluorophenyl)Pyridazin-4-Yl]-7-[2-(Morpholin-4-Yl)Ethoxy]Quinolin-4-Amine]	< 1 nM
COC(=O)c1cccc(-c2cc(Nc3ccnc(N)c3)cnn2)c1F [Example C3, reference compound]	10000 nM
CN(C)CCN1CCN(C(=O)Oc2ccc3c(Nc4cnnc(-c5cc(Cl)ccc5F)c4)ccnc3c2)CC1 [Example 61, 4-{[6-(5-Chloro-2-Fluorophenyl)Pyridazin-4-Yl]Amino}Quinolin-7-Yl 4-[2-(Dimethylamino)Ethyl]Piperazine-1-Carboxylate]	< 1 nM
COC(=O)N(C)CCN1CCN(CCC(=O)Nc2cc(Nc3cc(-c4cc(Cl)ccc4F)nnc3C)ccn2)CC1 [Example 105, methyl N-[2-(4-{2-[(4-{[6-(5-chloro-2-fluorophenyl)-3-methylpyridazin-4-yl]amino}pyridin-2-yl)carbamoyl]ethyl}piperazin-1-yl)ethyl]-N-methylcarbamate]	< 1 nM
Cc1nnc(-c2cc(Cl)ccc2F)cc1Nc1ccnc(NC(=O)[C@H]2C[C@@H](N3CCN(C)CC3)C2)c1 [Example 162, Cis N-(4-{[6-(5-Chloro-2-Fluorophenyl)-3-Methylpyridazin-4-Yl]Amino}Pyridin-2-Yl)-3-(4-Methylpiperazin-1-Yl)Cyclobutane-1-Carboxamide]	< 1 nM
CN1CCN(CCC(=O)Nc2cc(Nc3cnnc(-c4cc(Cl)ccc4F)c3)ccn2)CC1=O [Example 24, N-(4-{[6-(5-Chloro-2-Fluorophenyl)Pyridazin-4-Yl]Amino}Pyridin-2-Yl)-3-(4-Methyl-3-Oxopiperazin-1-Yl)Propanamide]	1 to 5 nM
Cc1nnc(-c2cc(Cl)ccc2F)cc1Nc1ccnc(NC(=O)CN2CC3(CN(C)C3)C2)c1 [Example 143, N-(4-{[6-(5-Chloro-2-Fluorophenyl)-3-Methylpyridazin-4-Yl]Amino}Pyridin-2-Yl)-2-{6-Methyl-2,6-Diazaspiro[3.3]Heptan-2-Yl}Acetamide]	< 1 nM
Cc1nnc(-c2cc(Cl)ccc2F)cc1Nc1ccnc(NC(=O)CCN2C[C@@H]3C[C@H]2CN3C)c1 [Example 111, N-(4-{[6-(5-Chloro-2-Fluorophenyl)-3-Methylpyridazin-4-Yl]Amino}Pyridin-2-Yl)-3-[(1S,4S)-5-Methyl-2,5-Diazabicyclo[2.2.1]Heptan-2-Yl]Propanamide]	< 1 nM
CNCCNCCC(=O)Nc1cc(Nc2cc(-c3cc(Cl)ccc3F)nnc2C)ccn1 [Example 93, N-(4-{[6-(5-Chloro-2-Fluorophenyl)-3-Methylpyridazin-4-Yl]Amino}Pyridin-2-Yl)-3-{[2-(Methylamino)Ethyl]Amino}Propanamide]	< 1 nM
CN1CC(NC(=O)c2cc3c(Nc4cnnc(-c5cc(Cl)ccc5F)c4)ccnc3cn2)C1 [Example 23, 4-{[6-(5-Chloro-2-Fluorophenyl)Pyridazin-4-Yl]Amino}-N-(1-Methylazetidin-3-Yl)-1,7-Naphthyridine-6-Carboxamide]	5 to 10 nM
O=C(OCCN1CCOCC1)c1ccc2nccc(Nc3cnnc(-c4cc(Cl)ccc4F)c3)c2c1 [Example 5, 2-(Morpholin-4-Yl)Ethyl 4-{[6-(5-Chloro-2-Fluorophenyl)Pyridazin-4-Yl]Amino}Quinoline-6-Carboxylate]	5 to 10 nM
CN1CC2(CCN(C(=O)Oc3ccc4c(Nc5cnnc(-c6cc(Cl)ccc6F)c5)ccnc4c3)CC2)C1 [Example 114, 4-{[6-(5-Chloro-2-Fluorophenyl)Pyridazin-4-Yl]Amino}Quinolin-7-Yl 2-Methyl-2,7-Diazaspiro[3.5]Nonane-7-Carboxylate]	< 1 nM
Cc1nnc(-c2cc(Cl)ccc2F)cc1Nc1ccnc2[nH]c(C(=O)NCCN3CCN(C)CC3)cc12 [Example 49, 4-{[6-(5-Chloro-2-Fluorophenyl)-3-Methylpyridazin-4-Yl]Amino}-N-[2-(4-Methylpiperazin-1-Yl)Ethyl]-M-Pyrrolo[2,3-b]Pyridine-2-Carboxamide]	< 1 nM
CN1CCC(OC(=O)c2ccc3c(Nc4cnnc(-c5cc(Cl)ccc5F)c4)ccnc3c2)CC1 [Example 20, 1-Methylpiperidin-4-Yl 4-{[6-(5-Chloro-2-Fluorophenyl)Pyridazin-4-Yl]Amino}Quinoline-7-Carboxylate]	< 1 nM
Cc1nnc(-c2cc(Cl)ccc2F)cc1Nc1ccnc(NC(=O)CCN2CCN(CC(F)(F)F)CC2)c1 [Example 124, N-(4-{[6-(5-Chloro-2-Fluorophenyl)-3-Methylpyridazin-4-Yl]Amino}Pyridin-2-Yl)-3-[4-(2,2,2-Trifluoroethyl)Piperazin-1-Yl]Propanamide]	< 1 nM
CS(=O)(=O)N1CCN(CCOc2ccc3c(Nc4cnnc(-c5cc(Cl)ccc5F)c4)ccnc3c2)CC1 [Example 36, N-[6-(5-Chloro-2-Fluorophenyl)Pyridazin-4-Yl]-7-[2-(4-Methanesulfonylpiperazin-1-Yl)Ethoxy]Quinolin-4-Amine]	< 1 nM
OCCN(CCO)CCN1CCN(CCOc2ccc3c(Nc4cnnc(-c5cc(Cl)ccc5F)c4)ccnc3c2)CC1 [Example 75, 2-{[2-(4-{2-[(4-{[6-(5-Chloro-2-Fluorophenyl)Pyridazin-4-Yl]Amino}Quinolin-7-Yl)Oxy]Ethyl}Piperazin-1-Yl)Ethyl](2-Hydroxyethyl)Amino}Ethan-1-Ol]	< 1 nM
Cc1nnc(-c2cc(Cl)ccc2F)cc1Nc1ccnc(NC(=O)CCN2CCN(C)C(CO)C2)c1 (stereo not drawn) [Example 170]	< 1 nM

Source: patent publication US20240018122A1, “PYRIDAZINYL AMINO DERIVATIVES AS ALK5 INHIBITORS” (CHIESI FARMACEUTICI S.P.A., priority 2020, published 2024)
